Data published in the supplement of paper PMC10307832.

Key:
Assay in all cases: relative viability (nuclei count vs DMSO), 5 days (fraction); higher = more cells survive
CAP-232 + Alpelisib = compound: C[C@H]([C@@H](C(=O)N)NC(=O)[C@@H]1CSSC[C@@H](C(=O)N[C@H](C(=O)N[C@@H](C(=O)N[C@H](C(=O)N1)CCCCN)CC2=CNC3=CC=CC=C32)CC4=CC=C(C=C4)O)NC(=O)[C@@H](CC5=CC=CC=C5)N)O [CAP-232] + Cc1nc(NC(=O)N2CCC[C@H]2C(N)=O)sc1-c1ccnc(C(C)(C)C(F)(F)F)c1 [Alpelisib] (partner 2 µM)
In short: (§1)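 The day after seeding in 1536-well plates, lung cancer cell lines were treated by pin tool with a single drug, or with a fixed anchor-drug dose together with five library-drug doses (not always all listed) in √10 steps. After 5 days, a combined fix-and-stain solution (final 0.05% Triton X-100, 1% formaldehyde, 1 ug/ml Hoechst) was added. Nuclei counted on 4× images gave relative viability as treated counts over vehicle counts, reported as the median of duplicate plates.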

CAP-232 + Lapatinib = compound: C[C@H]([C@@H](C(=O)N)NC(=O)[C@@H]1CSSC[C@@H](C(=O)N[C@H](C(=O)N[C@@H](C(=O)N[C@H](C(=O)N1)CCCCN)CC2=CNC3=CC=CC=C32)CC4=CC=C(C=C4)O)NC(=O)[C@@H](CC5=CC=CC=C5)N)O [CAP-232] + CS(=O)(=O)CCNCc1ccc(-c2ccc3ncnc(Nc4ccc(OCc5cccc(F)c5)c(Cl)c4)c3c2)o1 [Lapatinib] (partner 2 µM)
In short: as §1

CAP-232 + Olaparib = compound: C[C@H]([C@@H](C(=O)N)NC(=O)[C@@H]1CSSC[C@@H](C(=O)N[C@H](C(=O)N[C@@H](C(=O)N[C@H](C(=O)N1)CCCCN)CC2=CNC3=CC=CC=C32)CC4=CC=C(C=C4)O)NC(=O)[C@@H](CC5=CC=CC=C5)N)O [CAP-232] + O=C(c1cc(Cc2n[nH]c(=O)c3ccccc23)ccc1F)N1CCN(C(=O)C2CC2)CC1 [Olaparib] (partner 8 µM)
In short: as §1

CAP-232 + Bortezomib = compound: C[C@H]([C@@H](C(=O)N)NC(=O)[C@@H]1CSSC[C@@H](C(=O)N[C@H](C(=O)N[C@@H](C(=O)N[C@H](C(=O)N1)CCCCN)CC2=CNC3=CC=CC=C32)CC4=CC=C(C=C4)O)NC(=O)[C@@H](CC5=CC=CC=C5)N)O [CAP-232] + CC(C)C[C@H](NC(=O)[C@H](Cc1ccccc1)NC(=O)c1cnccn1)B(O)O [Bortezomib] (partner 0.002 µM)
In short: as §1

CAP-232 + Navitoclax = compound: C[C@H]([C@@H](C(=O)N)NC(=O)[C@@H]1CSSC[C@@H](C(=O)N[C@H](C(=O)N[C@@H](C(=O)N[C@H](C(=O)N1)CCCCN)CC2=CNC3=CC=CC=C32)CC4=CC=C(C=C4)O)NC(=O)[C@@H](CC5=CC=CC=C5)N)O [CAP-232] + CC1(C)CCC(c2ccc(Cl)cc2)=C(CN2CCN(c3ccc(C(=O)NS(=O)(=O)c4ccc(N[C@H](CCN5CCOCC5)CSc5ccccc5)c(S(=O)(=O)C(F)(F)F)c4)cc3)CC2)C1 [Navitoclax] (partner 0.5 µM)
In short: as §1

CAP-232 + Linsitinib = compound: C[C@H]([C@@H](C(=O)N)NC(=O)[C@@H]1CSSC[C@@H](C(=O)N[C@H](C(=O)N[C@@H](C(=O)N[C@H](C(=O)N1)CCCCN)CC2=CNC3=CC=CC=C32)CC4=CC=C(C=C4)O)NC(=O)[C@@H](CC5=CC=CC=C5)N)O [CAP-232] + C[C@]1(O)C[C@@H](c2nc(-c3ccc4ccc(-c5ccccc5)nc4c3)c3c(N)nccn32)C1 [Linsitinib] (partner 1 µM)
In short: as §1

CAP-232 + Foretinib = compound: C[C@H]([C@@H](C(=O)N)NC(=O)[C@@H]1CSSC[C@@H](C(=O)N[C@H](C(=O)N[C@@H](C(=O)N[C@H](C(=O)N1)CCCCN)CC2=CNC3=CC=CC=C32)CC4=CC=C(C=C4)O)NC(=O)[C@@H](CC5=CC=CC=C5)N)O [CAP-232] + COc1cc2c(Oc3ccc(NC(=O)C4(C(=O)Nc5ccc(F)cc5)CC4)cc3F)ccnc2cc1OCCCN1CCOCC1 [Foretinib] (partner 0.25 µM)
In short: as §1

CAP-232 + Crizotinib = compound: C[C@H]([C@@H](C(=O)N)NC(=O)[C@@H]1CSSC[C@@H](C(=O)N[C@H](C(=O)N[C@@H](C(=O)N[C@H](C(=O)N1)CCCCN)CC2=CNC3=CC=CC=C32)CC4=CC=C(C=C4)O)NC(=O)[C@@H](CC5=CC=CC=C5)N)O [CAP-232] + C[C@@H](Oc1cc(-c2cnn(C3CCNCC3)c2)cnc1N)c1c(Cl)ccc(F)c1Cl [Crizotinib] (partner 1 µM)
In short: as §1

CAP-232 + Pictilisib = compound: C[C@H]([C@@H](C(=O)N)NC(=O)[C@@H]1CSSC[C@@H](C(=O)N[C@H](C(=O)N[C@@H](C(=O)N[C@H](C(=O)N1)CCCCN)CC2=CNC3=CC=CC=C32)CC4=CC=C(C=C4)O)NC(=O)[C@@H](CC5=CC=CC=C5)N)O [CAP-232] + CS(=O)(=O)N1CCN(Cc2cc3nc(-c4cccc5[nH]ncc45)nc(N4CCOCC4)c3s2)CC1 [Pictilisib] (partner 1 µM)
In short: as §1

CAP-232 = compound: C[C@H]([C@@H](C(=O)N)NC(=O)[C@@H]1CSSC[C@@H](C(=O)N[C@H](C(=O)N[C@@H](C(=O)N[C@H](C(=O)N1)CCCCN)CC2=CNC3=CC=CC=C32)CC4=CC=C(C=C4)O)NC(=O)[C@@H](CC5=CC=CC=C5)N)O [CAP-232]
In short: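 Following overnight incubation at 37 °C, lung cancer cell lines in 1536-well plates were pinned with five library-drug doses (not always all listed) in √10 steps on vehicle-anchored plates. The cells then spent 5 days without medium change before a combined fix, permeabilisation and Hoechst stain, 4× imaging and MetaXpress nuclear counts. Viability is the treated-to-vehicle ratio of nuclei, taken as the median across plates. Only plates with control CV below 25% and at least one doubling passed.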

Row | Cell Line | relative viability (CAP-232 + Alpelisib; first compound 0.4 µM) | relative viability (CAP-232 + Alpelisib; first compound 1.265 µM) | relative viability (CAP-232 + Alpelisib; first compound 4 µM) | relative viability (CAP-232 + Alpelisib; first compound 12.65 µM) | relative viability (CAP-232 + Lapatinib; first compound 0.4 µM) | relative viability (CAP-232 + Lapatinib; first compound 1.265 µM) | relative viability (CAP-232 + Lapatinib; first compound 4 µM) | relative viability (CAP-232 + Lapatinib; first compound 12.65 µM) | relative viability (CAP-232 + Olaparib; first compound 0.4 µM) | relative viability (CAP-232 + Olaparib; first compound 1.265 µM) | relative viability (CAP-232 + Olaparib; first compound 4 µM) | relative viability (CAP-232 + Olaparib; first compound 12.65 µM) | relative viability (CAP-232 + Bortezomib; first compound 0.4 µM) | relative viability (CAP-232 + Bortezomib; first compound 1.265 µM) | relative viability (CAP-232 + Bortezomib; first compound 4 µM) | relative viability (CAP-232 + Bortezomib; first compound 12.65 µM) | relative viability (CAP-232 + Navitoclax; first compound 0.4 µM) | relative viability (CAP-232 + Navitoclax; first compound 1.265 µM) | relative viability (CAP-232 + Navitoclax; first compound 4 µM) | relative viability (CAP-232 + Navitoclax; first compound 12.65 µM) | relative viability (CAP-232 + Linsitinib; first compound 0.4 µM) | relative viability (CAP-232 + Linsitinib; first compound 1.265 µM) | relative viability (CAP-232 + Linsitinib; first compound 4 µM) | relative viability (CAP-232 + Linsitinib; first compound 12.65 µM) | relative viability (CAP-232 + Foretinib; first compound 0.4 µM) | relative viability (CAP-232 + Foretinib; first compound 1.265 µM) | relative viability (CAP-232 + Foretinib; first compound 4 µM) | relative viability (CAP-232 + Foretinib; first compound 12.65 µM) | relative viability (CAP-232 + Crizotinib; first compound 0.4 µM) | relative viability (CAP-232 + Crizotinib; first compound 1.265 µM) | relative viability (CAP-232 + Crizotinib; first compound 4 µM) | relative viability (CAP-232 + Crizotinib; first compound 12.65 µM) | relative viability (CAP-232 + Pictilisib; first compound 0.4 µM) | relative viability (CAP-232 + Pictilisib; first compound 1.265 µM) | relative viability (CAP-232 + Pictilisib; first compound 4 µM) | relative viability (CAP-232 + Pictilisib; first compound 12.65 µM) | relative viability (CAP-232; 0.4 µM) | relative viability (CAP-232; 1.265 µM) | relative viability (CAP-232; 4 µM) | relative viability (CAP-232; 12.65 µM)
1 | Calu-6 | 1.09 | 1.08 | 1 | 0.654 | 1.26 | 1.03 | 1.15 | 0.664 | 0.616 | 0.542 | 0.623 | 0.394 | 1.16 | 1.04 | 0.947 | 0.653 | 0.963 | 0.941 | 0.831 | 0.446 | 1.05 | 1.01 | 0.929 | 0.988 | 0.867 | 1.02 | 0.995 | 0.561 | 0.961 | 0.842 | 0.988 | 0.555 | 0.956 | 0.889 | 0.945 | 0.585 | 1.12 | 1.02 | 1.15 | 0.74
2 | EBC-1 | 0.876 | 0.819 | 0.846 | 0.76 | 0.181 | 0.228 | 0.194 | 0.159 | 0.773 | 0.686 | 0.698 | 0.662 | 0.512 | 0.497 | 0.567 | 0.475 | 0.315 | 0.328 | 0.363 | 0.304 | 1.04 | 0.944 | 0.904 | 0.926 | 0.0884 | 0.129 | 0.101 | 0.0802 | 0.194 | 0.169 | 0.178 | 0.11 | 0.363 | 0.314 | 0.391 | 0.286 | 1.05 | 0.974 | 1.13 | 0.927
